The text below walks through data of a melting point compilation (Tetko et al.; mined from patent text by program, amines drawn as free bases though some values may be those of a salt).

Bounds are passed on as bounds.

Take `COc1ccc2c(c1)CCC1C2CCC2(C)C(O)CC(C)(C)C12` (stereo unspecified): the melting point lay in the range of 87 to 91 °C.

On to `COC(=O)CC[C@H]1CC[C@H](NC(=O)N(NC=O)c2ccc(C#N)cc2)CC1`, for which the melting point fell in the range of 140 to 142 °C.

`Nc1ccccc1SC[C@H](NC(=O)OCc1ccccc1)C(=O)O` displayed a melting point of 161 to 162 °C.

In turn, `COc1cc2c(cc1Br)C(=CNc1ccc(N3CCN(C)CC3)cc1)C(=O)NC2=O` came in with a melting point of 274 to 276 °C.

For `O=C(NCC(=O)N(c1ccccc1)c1ccccc1)Nc1cccc(Cl)c1Cl`, the melting point came out at 210 °C.

The molecule `COc1ccc(-c2cc3c4n(ccc-3n2)CC(C)=N4)cc1` came in with a melting point of 168 °C.

`O=C(CN1CCCCC1)Nc1ccc(NC(=O)Nc2ccc(N(CCCl)CCCl)cc2)cc1` had a melting point of 227 to 229 °C.

As to `O=C(N1CCC(O)(c2ccccc2)CC1)C(F)(F)F`, the melting point is 123 to 125 °C.

`O=c1[nH]c2ccccc2c2c(C(O)CC3CCCCC3)n(-c3ccccc3)nc12` (stereo unspecified): the melting point was in the range of 254 to 259 °C.

In turn, `CCNC(=N)NC(=O)c1c(-c2ccccc2)noc1C` gave a melting point of 215 °C.

Consider `COC(=O)C=C1CCOc2ccc(Cl)cc21`, for which the melting point fell in the range of 113 to 115 °C.

For `Cc1cc(O)ccc1N=Cc1ccccc1O`, the melting point lay within 95 to 97 °C.

Molecule `Cc1cc(CCCOc2c(C)cc(-c3noc(CI)n3)cc2C)on1` had a melting point of 89 to 90 °C.

In the case of `CCc1ccc2[nH]c3c(=O)n(CCN(C)C)c4ccccc4c3c2c1`, the melting point was 266 to 268 °C.

Regarding `COC(=O)c1c(C(=O)OC)c(-c2ccc(OC)c(OC)c2)c2sccc2c1OC`, the melting point came out at 118 °C.

Take `CC(C)(C)OC(=O)NCCCCn1c(-c2ccccc2)nc2cnc3ccccc3c21`: the melting point was 158 to 159 °C.

In turn, `CCC(=O)c1ccc(OCCCCl)cc1` registered a melting point of 41 to 43 °C.

For `COCC(F)(F)c1nc2nc(C)c(F)cc2cc1C(=O)C1C(=O)C2CCC(C2)C1=O` (stereo unspecified), the melting point is 177 to 180 °C.

`CCOC(=O)c1sc(-n2cn[nH]c2=O)nc1C` registered a melting point of 165 to 167 °C.

Turning to `ClCCCCCCCCOc1ccc2ccccc2c1`, the melting point stood at 35 °C.

In the case of `Clc1nc(NCc2cccc(I)c2)c2[nH]cnc2n1`, the melting point fell in the range of 222 to 224 °C.

With `NCC(=O)Nc1cccc(C(N)=O)c1`, the melting point lay in the range of 139 to 140 °C.

In the case of `O=C(CCc1oc(-n2cnc3ccccc32)nc1-c1ccc(Cl)cc1)N1CCSC1`, the melting point is 125 to 126 °C.

For the molecule `CC(C)c1nc(CCOC(=O)N[C@H](C(=O)N[C@@H](Cc2ccccc2)C[C@H](O)[C@H](Cc2ccccc2)NC(=O)OCc2cncs2)C(C)C)cs1`, the melting point lay in the range of 146 to 147 °C.

`CC1(C)CCCC(C)(C)N1Cc1ccc2cc(NC(=O)c3ccc(-c4ccc(Cl)cc4)cc3)ccc2c1` returned a melting point of 244 to 246 °C.

Take `Cc1ccc(S(=O)(=O)N2[C@@H](c3ncn(C)n3)CC[C@H]2c2ccc(F)cc2)cc1` (racemic): the melting point amounted to 160 °C.

`Cc1oc(-c2ccco2)nc1COc1ccc(CO)cc1` came in with a melting point of 91 to 92 °C.

In turn, `Cc1ccc(S(=O)(=O)n2cc(CCN(Cc3ccccc3)Cc3ccccc3)c3ccccc32)cc1` had a melting point of 116 to 118 °C.

`CCCC1=C(C#N)S(=O)(=O)c2ccc(C(F)(F)F)cc2N1` yielded a melting point of 200 °C.

Molecule `CC(=O)N(CCCCN1CCN(c2csc3cc(F)ccc23)CC1)C(=O)C(C)C` returned a melting point of 98 to 99 °C.

As for `CC(C)c1ccc(-c2nnc(-c3ccc(C(=O)O)cc3)s2)cc1`, the melting point is > 300 °C.

`COC(=O)Nc1nc(OC)cc(OC)n1` yielded a melting point of 81 to 83 °C.

`O=[N+]([O-])c1cc(Br)ccc1N1CCc2ccccc21` gave a melting point of 100 to 102 °C.

Molecule `CCOC(=O)c1cnoc1-c1ccc(-c2ccccc2)cc1` displayed a melting point of 73 to 75 °C.

`Cc1ccc(C(O)(Cc2nnnn2C)c2ccc(C)cc2F)c(F)c1`: the melting point was 150 to 151 °C.

As for `O=C1c2ccccc2-c2c1c1ccccc1c(=O)n2CCCCCCO`, the melting point was 139 to 141 °C.

With `Cc1cccc(-c2n[nH]cc2-c2ccc(F)c(-c3csc(CO)n3)c2)n1`, the melting point is 89 to 92 °C.

`Cn1cc(C=CC(=O)NC2CC2)c([N+](=O)[O-])n1`: the melting point was 183 to 185 °C.

In turn, `CCCCn1c(C)c(C(=O)Nc2c(CC)cccc2CC)c(=O)c(Br)c1CC` yielded a melting point of 132 to 134 °C.

In turn, `COc1ccc(C(=O)C(=O)c2ccncc2)cc1OC1CCCC1` registered a melting point of 117 to 119 °C.

`COC(=O)C(C)(C)OCc1cc2nc(Cl)ccc2n1S(=O)(=O)c1cccc2ccccc12`: the melting point turned out to be 108 °C.

The molecule `COc1cc(-c2nc(-n3cccn3)c3c(C)c(C#N)sc3n2)cc(OC)c1OC` registered a melting point of 209 to 214 °C.

With `CCCCCCC(O)CCCCCCCCCCC(N)=O` (stereo unspecified), the melting point fell in the range of 98 to 99 °C.

Molecule `O=[N+]([O-])CSc1ccc(Oc2ccccc2)cc1` showed a melting point of 100 to 102 °C.

In turn, `COc1ccccc1NC(C#N)c1c(Cl)cccc1Cl` (stereo unspecified) registered a melting point of 118 °C.

As for `CC(C)=CCS(=O)(=O)c1ccc(C)cc1`, the melting point fell in the range of 71 to 72 °C.

`Cn1c(=O)n(Cc2ccccc2)c2cc(Cn3ccnc3)ccc21` returned a melting point of 129 °C.

As to `NC(=O)N1CC(Oc2ccc(Cl)c(Cl)c2)C1`, the melting point fell in the range of 179 to 184 °C.

Consider `C#Cc1ccc(Oc2cc(C(=O)Cl)cc(C(=O)Cl)c2)cc1`, for which the melting point was in the range of 68 to 69 °C.

Molecule `Cn1c2c(ccc1=O)C(C)(N)CCC2` (stereo unspecified) returned a melting point of 166 to 168 °C.

`C=C(C)C1CCC2(C(=O)O)CCC3(C)C(CCC4C5(C)CCC(O)C(C)(CO)C5CCC43C)C12` (stereo unspecified) had a melting point of 258 to 259 °C.

Consider `CCC(=O)N1C(=O)OC(C)(C)[C@@H]1Cc1ccccc1`, for which the melting point was found to be 61 °C.

With `CCCCc1nc(Cl)c(CC(=O)O)n1Cc1ccc([N+](=O)[O-])cc1`, the melting point is 207 to 210 °C.

`Cc1onc(-c2c(Cl)cccc2Cl)c1CN1C(=O)C2(COc3cc4c(cc32)OCO4)c2ccccc21` (stereo unspecified) returned a melting point of 190 to 192 °C.

For the molecule `CCN(Cc1ccc(Cl)nc1)C(=C[N+](=O)[O-])N(C)C(=O)OCOC(=O)c1ccccc1`, the melting point lay in the range of 62 to 63 °C.

`CCCCCCCCCCCCNC(=O)n1nc(Oc2ncc(C(F)(F)F)cc2Cl)c(Cl)c1C` came in with a melting point of 68 to 70 °C.

`CC(C)Cc1nn(C)c(=O)c2c(SCCCO)n(Cc3cccc4ccccc34)nc12` gave a melting point of 141 to 142 °C.

Regarding `COc1c2c(c(OC)c(OC)c1OC)CC(CCCCCCC1Cc3c(c(OC)c(OC)c(OC)c3OC)C1)C2`, the melting point fell in the range of 100 to 108 °C.

`CCCC(=O)C(=O)NCC(=O)c1cccnc1`: the melting point was in the range of 80 to 82 °C.

Turning to `COc1cc2c(c(Cl)c1Cl)C(=O)c1ccccc1-2`, the melting point was 268 to 270 °C.

The molecule `Cc1c(NC(=O)CC(C)(C)C)c(C)c2c(c1-c1ccoc1)OCC2c1ccc(C(C)C)cc1` (stereo unspecified) yielded a melting point of 183 to 185 °C.

In turn, `C1CNCCCNCCCNCCCNC1` yielded a melting point of 84 to 86 °C.

`O=C1c2cc(CCCCOC(=O)C(F)(F)F)ccc2OCc2ccsc21` showed a melting point of 65.5 to 67 °C.

For the molecule `O=C(O)CCC(=O)Nc1cc(C(=O)O)cc([N+](=O)[O-])c1`, the melting point is 220 to 221 °C.

Consider `C#CCn1ccc(C(=O)OC)c1C=NO`, for which the melting point was in the range of 88 to 90 °C.

`COC(=O)CCc1cc2ccc(C(F)(F)F)cc2[nH]1` came in with a melting point of 108 to 110 °C.

As to `CCCCCCC(C)N(Cc1ccc(CC(C)(C)C)cc1)C(Nc1cc(C(C)(C)C)c(O)c(C(C)(C)C)c1)=C1C(=O)COC1=O` (stereo unspecified), the melting point was 158 to 160 °C.

Regarding `CCOC(=O)C1[C@@H]2[C@@H](O)[C@@H]3O[C@H](c4ccc(OC)cc4)OC[C@H]3O[C@H]12` (stereo partly specified), the melting point is 118 to 120 °C.

With `O=S(=O)(NCCc1ccc(Cc2nnn[nH]2)cc1)c1ccc(Cl)cc1`, the melting point lay in the range of 168 to 169 °C.

Turning to `Cn1c(C(F)(F)F)ccc(-c2cc(C#N)c(Cl)cc2F)c1=O`, the melting point lay in the range of 180 to 181 °C.

Regarding `Cc1nc(CC2CCc3c(C)c4ccccc4n3C2=O)c(C)[nH]1` (stereo unspecified), the melting point fell in the range of 219 to 221 °C.

`CC(C)(C)OC(=O)N1CCC(C#N)(c2ccc(Cl)c(Cl)c2)CC1` showed a melting point of 142 to 145 °C.

In the case of `ClC(Cl)(Cl)c1nc(-c2ccc(OCCCn3ccnc3)cc2)no1`, the melting point lay within 102 to 103 °C.

Consider `COC(=O)CCCCCOc1ccc(NC(=O)CO)cc1`, for which the melting point was 91.5 to 94 °C.

`Nc1ccc(I)cc1C(=O)c1ccccc1Cl`: the melting point was 120 to 122 °C.

Molecule `CCCCc1nc2cc(C)c(C)cc2n1Cc1ccc(C#N)cc1` had a melting point of 160 °C.

As to `CCN(c1ccccc1)c1nc(=O)c2cccnc2s1`, the melting point fell in the range of 174 to 175 °C.

Regarding `CC(NC(=S)Nc1ccc(NCCN)nc1)C(C)(C)C` (stereo unspecified), the melting point lay within 138 to 140 °C.

`C=CC(=O)OC12Oc3cc(C(C)C)ccc3C1(O)C(=O)c1ccccc12` (stereo unspecified): the melting point lay within 95 to 97 °C.

For `Cc1ccccc1CO[C@H]1COCO[C@H]1C` (relative stereo), the melting point came out at 54 °C.

In the case of `CCN1C(=O)CN=C(c2ccccc2F)c2cc(C(C)N)ccc21` (stereo unspecified), the melting point was 53 to 55 °C.

Regarding `O=c1cc(NCCN2CCN(c3ccccc3F)CC2)cn[nH]1`, the melting point is 103 to 105 °C.

`c1ccc2c(c1)Cn1cccc1C1CNCCN21` (stereo unspecified) showed a melting point of 56 to 58 °C.

Regarding `CCn1cc(C(=O)O)c(=O)c2cc(F)c(N3CCN(S(=O)(=O)c4ccc(N)cc4)CC3)cc21`, the melting point lay in the range of 283 to 284 °C.

For the molecule `CC(=NOCCOc1ccc(CC2SC(=O)NC2=O)cc1)c1ccc(OCc2ccccc2)nc1` (stereo unspecified), the melting point was 160 to 161 °C.

On to `CC12CCC(=O)C=C1CCC1C2=CCC2(C)C1CCC2(OC=O)C(=O)CCl` (stereo unspecified), for which the melting point was 203 °C.

`O=C(O)c1ccc(NCc2cccc(C(F)(F)F)c2)cn1` had a melting point of 216 to 217 °C.

Consider `NC(=S)c1cn(COC(CO)CO)c2ncnc(N)c12`, for which the melting point was 180 to 181 °C.

Molecule `CCCCc1nnc2ccccc2c1O` gave a melting point of 180 °C.

The molecule `CC(CF)(CF)C1=NC(c2ccc(C(C)(C)C)cc2)CO1` (stereo unspecified) returned a melting point of 62 to 63 °C.

Take `Nc1ccccc1C(=O)Nc1ccc(C(F)(F)F)cc1`: the melting point is 160 to 161 °C.
